According to US11547740B2, “Histone deacetylase (HDAC) inhibitor up-regulates car expression and targeted antigen intensity, increasing antitumor efficacy” (Baylor College of Medicine, priority 2013, dated 2023):

Assays:
Assay type in all cases: cell-based, human
[1] = tested on: MUC1 expression on CAR-MUC1-resistant CAPAN1 cells; experiment: MUC1 antigen expression by flow after decitabine treatment; settings: 1 μM, after 4 days of treatment; 3.5 before exposure
Procedure: One million CAPAN1 cells were fixed with 80% methanol and washed with 0.1% tween-PBS. 1 ug of anti-MUC1 antibody (Abcam Inc, Cambridge, Mass.) was added and incubated at RT for 30 mins. Then cultures were washed and incubated with 0.4 ug of a goat anti-mouse IgG APC antibody (BD Pharmingen, San Jose, Calif.) for 20 mins at 4° C. in the dark. Cells were then washed twice and analyzed.
CAPAN1 cells were culture in a T175 flask using complete IMDM media contained 1 μM 5-Aza-2′-deoxycytidine-decitabine-(Sigma-aldrich Inc., Saint Louis, Mo.) for 4 days, with fresh media+decitabine replenished daily. Subsequently, decitabine-treated CAPAN1 cells were rested for 2 days in complete IMDM, and then co-cultured with CAR-MUC1 T cells.
Finally, to determine whether CAR-T cell potency could be improved by combination with conventional epigenetic modulators, which can increase TAA expression by demethylating DNA, CAPAN1 cells were cultured that had been previously treated with CAR-MUC1 T cells and consequently expressed only low levels of the target antigen, with 1 μM of decitabine, a hypomethylating agent.

[2] = tested on: CAPAN1 cells initially treated with CAR-MUC1 T cells; experiment: 72 hr co-culture of decitabine-treated resistant CAPAN1 cells with CAR-MUC1 T cells; settings: 1 μM for 4 days, then 72 hr co-culture, E:T 5:1
Source text: Data is reported as the mean±SD; n=4. (b) To determine whether decitabine exposure would upregulate MUC1 expression in this resistant population we evaluated antigen expression, by flow, on CAR-resistant cells (grey histogram) and those cultured in decitabine (black histogram). To next assess whether decitabine treatment resensitized CAPAN1 cells to CAR-MUC1 T cells we performed a 72-hr co-culture experiment using CAPAN1 cells initially treated with CAR-MUC1 T cells (c) then either left untreated or cultured with decitabine as targets (E:T 5:1). After 72-hours retreatment with CAR-MUC1 T cells, residual tumor cells were again quantified by flow. Data is reported as the mean±SD; n=2.
CAPAN1, 293T, 293T-MUC1-mOrange or 293T-PSCA-GFP, were used as targets. Briefly, GFP/CAPAN1 cells were mixed with either OKT3/CD28 blasts or CAR-modified T cells at a 1:5 ratio in the presence of IL2 (50 U/ml) in complete media. For our engineered tumor model, 293T-MUC1-mOrange and 293T-PSCA-GFP (or control 293T cells alone) were mixed at 1:1 ratio then OKT3/CD28 blasts or CAR-modified T cells were added to the mixture; 10:1 (T cells:tumor cell), in the presence of IL2 (50 U/ml) in complete media. After 72 hours all residual cells were collected, counted, stained and then analyzed by flow cytometry (Gallios; Beckman Coulter Inc., Brea, Calif.). […]

[3] = tested on: CAR-MUC1 expression on effector T cells; experiment: CAR expression on modified T cells cultured with decitabine; settings: after one day and several days
Procedure: T cells were analyzed 3-4 weeks after the generation of the culture by surface-stained with monoclonal antibodies to: CD3, CD4, CD8, CD19, CD56, CD27, CD28, CD45RO, and CD62L (Becton Dickinson B D, Franklin Lakes, N.J.). Cells were washed once with PBS supplemented with 2% FBS, pelleted, and antibodies added in saturating amounts (10 ul). To detect CAR-transduced cells, T cells were stained with a monoclonal antibody Fc-specific cyanine-Cy5-conjugated antibody (Jackson Immuno Research Laboratories, Inc., West Grove, Pa.), which recognizes the IgG1-CH2CH3 component of the receptor. Cells were analyzed using a Gallios Flow cytometer and the data analyzed using Kaluza software (Beckman Coulter Inc., Brea, Calif.).
It is illustrated therein that one can modulate the intensity of CAR-MUC1 expression on effector cells when the effector cells are cultured with decitabine.

SMILES: Nc1ncn([C@H]2C[C@H](O)[C@@H](CO)O2)c(=O)n1 [decitabine, 5-Aza-2′-deoxycytidine]
- intensity of MUC1 expression [1]: 26.0 relative mean fluorescence intensity
- re-sensitization of resistant tumor cells to CAR-MUC1 T cell killing [2]: re-sensitizing previously resistant tumor cells to CAR-MUC1 T cell killing
- CAR-MUC1 expression on effector cells [3]: increase in expression
